This note sets out measurements from paper PMC5853643, “Bombesin receptor subtype‐3‐expressing neurons regulate energy homeostasis through a novel neuronal pathway in the hypothalamus” (Brain and Behavior, 2017).

This assay has as its target T1, Bombesin receptor subtype‐3 (BRS‐3) (Rattus norvegicus, UniProt Q8K418).
T1 construct: gene Brs3
T1 sequence (Q8K418 1-399): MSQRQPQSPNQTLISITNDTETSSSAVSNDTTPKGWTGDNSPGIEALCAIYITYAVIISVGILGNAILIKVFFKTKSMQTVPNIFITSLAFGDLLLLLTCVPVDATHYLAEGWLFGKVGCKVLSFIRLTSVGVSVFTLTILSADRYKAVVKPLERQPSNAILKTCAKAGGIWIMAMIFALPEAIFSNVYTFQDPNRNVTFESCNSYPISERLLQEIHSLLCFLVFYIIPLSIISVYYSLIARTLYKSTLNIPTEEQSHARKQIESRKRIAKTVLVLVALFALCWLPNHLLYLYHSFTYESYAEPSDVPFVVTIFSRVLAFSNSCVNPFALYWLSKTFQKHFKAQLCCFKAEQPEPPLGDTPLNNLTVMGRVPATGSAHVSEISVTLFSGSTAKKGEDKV
Kind of assay: agonist-induced Ca2+ mobilization, aequorin bioluminescence assay in CHO-K1 cells overexpressing BRS-3. Format: cell-based. For orientation: Calcium flux is commonly read through the fluorescence of an indicator in the cells.

Each structure is given as a SMILES string.

What is called EC50 is the midpoint of the concentration-response curve. Turning to `COc1ccc2c(c1)C(=O)N(Cc1ccccc1)C(C(=O)NC(C)(C)C)c1ccccc1-2` (racemic) [compound-A, 6‐benzyl‐N‐tert‐butyl‐9‐methoxy‐7‐oxo‐6,7‐dihydro‐5H‐dibenzo[c,e]azepine‐5‐carboxamide], the EC50 is 0.1 µM.
In turn, `COc1ccc2c(c1)C(=O)N(Cc1ccccc1)C(C(=O)NC(C)(C)C)c1ccccc1-2` (racemic) [compound-C, compound‐C] had an EC50 of 0.13 µM.
